Laboratory results taken from patent US20250163488A1, “CONJUGATION METHOD INVOLVING A TRANSGLUTAMINASE AT THE FC REGION COMPRISING A TRIMMED N-GLYCAN” (ADC THERAPEUTICS SA, priority 2022, published 2025).

Target: T1, MTGase (Streptomyces mobaraensis, UniProt P81453)
T1 sequence (P81453 77-407): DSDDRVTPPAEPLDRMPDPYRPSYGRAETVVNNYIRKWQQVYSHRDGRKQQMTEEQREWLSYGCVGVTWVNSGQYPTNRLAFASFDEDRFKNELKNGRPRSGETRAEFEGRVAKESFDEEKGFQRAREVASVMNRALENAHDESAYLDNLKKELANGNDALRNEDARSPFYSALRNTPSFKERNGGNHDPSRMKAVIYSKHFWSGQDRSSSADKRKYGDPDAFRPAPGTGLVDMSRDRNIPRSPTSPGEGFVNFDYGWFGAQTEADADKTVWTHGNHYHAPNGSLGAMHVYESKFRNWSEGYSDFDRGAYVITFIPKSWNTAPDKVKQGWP
Assay: MTGase mediated conjugation of linkers to deglycosylated/trimmed antibody X, efficiency by LC-MS
Format: biochemical
Design: Efficiency of MTGase mediated conjugation, PNGase F Process: tested at 200 eq
Settings: linker 200 eq., 37° C., 18 h; for Efficiency of MTGase mediated conjugation, EndoS Process: antibody X glycan trimmed with EndoS; for Efficiency of MTGase mediated conjugation, PNGase F Process: antibody X deglycosylated with PNGase F
Procedure: Antibody X (2.5 mg) was degylcosylated using PNGase F (379 KU) at an antibody concentration of 1.33 mg/mL, the digest was incubated at 37° C. for 18 h. Deglycosylated antibody X was purified by protein A chromatography followed by buffer exchange into PBS and concentration by UF/DF.
Antibody X (2.5 mg) glycans were trimmed using EndoS (12.5 μg) at an antibody concentration of 1.0 mg/mL, the digest was incubated at 37° C. for 18 h. Trimmed antibody X was purified by protein A chromatography followed by buffer exchange into PBS and concentration by UF/DF.
Solutions of linkers 1-4, 7, 8 & 11 (Table 1) were prepared in PBS. Degylcosylated/trimmed antibody X samples (0.1 mg, 2 mg/mL) were next functionalized with linkers 1-4, 7, 8 & 11 (200 eq.) via MTGase mediated conjugation using 6.7 U of enzyme per mg of antibody. The resulting reactions were incubated at 37° C. for 18 h. Functionalized antibody X samples were purified by protein A chromatography followed by buffer exchange into PBS and concentration via UF/DF. The efficiency of conjugation for the purified samples was determined by LC-MS (Table 2).

Row | Compound | Efficiency of MTGase mediated conjugation, EndoS Process | Efficiency of MTGase mediated conjugation, PNGase F Process
1 | [N-]=[N+]=NCCOCCOCCOCCNC(=O)c1ccc(C(=O)NN)cc1 [Compound 7, 4-hydrazidobenzamide-PEG(4u)-azide] | 100% | –
2 | [N-]=[N+]=NCCOCCOCCOCCNC(=O)c1ccc(NN)cc1 [Compound 8, 4-hydrazinobenzamide-PEG(4u)-azide] | 84% | 91%
3 | [N-]=[N+]=NCCOCCOCCOCCNC(=O)c1ccc(CC(=O)NN)cc1 [Compound 11, 4-hydrazidomethylbenzamide-PEG(4u)-azide] | 100% | –
4 | amine-PEG(3u)-azide [Compound 1] | 100% | 100%
5 | aminooxy-PEG(3u)-azide [Compound 2] | 84% | 95%
6 | hydrazido-PEG(4u)-azide [Compound 3] | 97% | 98%
7 | hydrazino-PEG(4u)-azide [Compound 4] | 86% | 89%
